# Where “and” joins values, the source holds several entries; their conditions need not be identical. Identical values can stand only once. Like-named read-outs stand apart in the source and are kept apart here.
# Experiment: Plasma dosimetry of PFHxSA and PFHxS by targeted LC/MS/MS
# Type: in vivo, rat
# Conditions: for concentration at 24 h: Sprague Dawley (Crl:CD(SD)), rat, oral
# From the text: The plasma and liver samples for this investigation were provided by Mutlu et al.. The study design, including detailed descriptions of animal handling, procedures for dosing, clinical observations, termination, and collection of tissues, is reported elsewhere and is consistent with the ARRIVE guidelines. Briefly, male and female Sprague Dawley (SD) rats (Crl:CD(SD)) (n = 48/sex, 96 total) were purchased from Charles River Laboratory (Raleigh, NC, USA) and allowed to acclimate for ≥5 days before initial dosing. Rats were 8–10 weeks old at the time of exposure. PFHxSA dosing solutions in corn oil were prepared on Day 0 and used over the course of the study. Rats of both sexes (n = 5/sex, dose, and time point, plus eight vehicle controls per sex) were dosed by oral gavage (5 mL/kg body weight) once daily for five days. […] The formulation concentrations decreased from 100 mg/kg/day at half-log10 intervals until the lowest dose level, which was a full log10 interval below the next higher dose, giving eight dose levels (0.01 to 100 mg/kg/day or 0.025 µmol/kg/day to 250 µmol/kg/day) in addition to vehicle controls. Doses were administered in randomized order within ± 1 h on each day of dosing. […] Rats were euthanized 24 h after the last dose. Blood was collected via cardiac puncture with tripotassium ethylene diamine tetraacetic acid (K3EDTA) as an anti-coagulant and centrifuged to collect cell-free plasma. Liver was collected and flash-frozen in liquid nitrogen. Liver, plasma, and dosing formulation samples were frozen at the USEPA Center for Computational Toxicology and Exposure (CCTE), Durham, NC, USA. Tissue samples (plasma and liver, n = 96 each) were stored at ≤−70 °C prior to extraction; dosing formulation samples (n = 9) were stored at −20 °C.
# Detailed information on solvents and standards used for targeted LC/MS/MS of PFHxSA and PFHxS can be found in SI Text S1 and SI Table S1. Plasma and liver preparations were modified from Conley et al.. Briefly, aliquots of plasma (25 µL) and liver (~10 mg) were spiked with PFOSA as an internal standard, as no isotope-labeled PFHxSA was available. Sample batches included up to 96 samples along with an MB, CCV, and LCS for QC. Commercial plasma (mixed-sex SD rat plasma) and liver (mixed-sex SD rat) were obtained from BioIVT (Westbury, NY, USA). Cold acetonitrile (ACN) with 0.1 M formic acid was used to precipitate proteins. Liver and plasma samples were prepared similarly, except that the livers were homogenized after solvent addition. Plasma samples were vortexed to mix before being chilled at −20 °C, after which samples were centrifuged at 5 °C and 10,000× g. Liver samples were chilled at −80 °C, then homogenized using an Omni International (Kennesaw, GA, USA) Bead Ruptor 24. Liver homogenates were centrifuged at 26,000× g and 5 °C. Supernatants from the extraction of both matrices were removed and stored at −20 °C until analysis. Refer to SI Text S4 for additional experimental details and information on calibration and QC parameters for quantitation of PFHxSA.
# Targeted LC/MS/MS of PFHxSA was performed on a Sciex 4000 QTRAP LC/MS/MS system operated in negative ESI mode with MRM scanning. A Restek (Bellefonte, PA, USA) Raptor Polar X (100 mm × 2 mm, 2.7 µm) column was used for liquid chromatography. Isocratic elution occurred over 10 min with a 30:70 ratio of mobile phase A (10 mM ammonium formate): mobile phase B (60:40 ACN: methanol). Both mobile phases included 0.05% formic acid. The LOQs for PFHxSA were 0.100 µM in plasma and 0.351 µM in liver. Additional details of the instrument method parameters for targeted analysis of PFHxSA are provided in SI Table S5. The MRM transitions for the PFHxSA method are provided in SI Table S6. […]
smiles,measurement,setting,value
"O=S(=O)(O)C(F)(F)C(F)(F)C(F)(F)C(F)(F)C(F)(F)C(F)(F)F [PFHxS, perfluorohexane sulfonic acid]",Male PFHxS plasma concentrations higher than female at the same dose level,across the dose range,4–10 times
same,"Female level of PFHxS lower than males, on average","doses of 10 mg/kg/day and up, plasma",5.3 fold
same,"PFHxS lower than PFHxSA in female plasma, on average","female rats, after oral PFHxSA",5.3 fold
same,PFHxS plasma concentrations higher than coincident PFHxSA plasma levels,"male rats, PFHxSA 30 and 100 mg/kg/day",1.6- to 6 fold
same,concentration at 24 h,"male, plasma, PFHxSA 10 mg/kg/day oral 5 days, male rats, mean ± SD, read-out: PFHxS Male Plasma Conc.",76.9 µM
same,concentration at 24 h,"male, plasma, PFHxSA 30 mg/kg/day oral 5 days, male rats, mean ± SD, read-out: PFHxS Male Plasma Conc.",136 µM
same,concentration at 24 h,"male, plasma, PFHxSA 100 mg/kg/day oral 5 days, male rats, mean ± SD, read-out: PFHxS Male Plasma Conc.",396 µM
same,Male PFHxS/PFHxSA concentration ratios higher than female ratios,plasma and liver,approximately 10 fold
"NS(=O)(=O)C(F)(F)C(F)(F)C(F)(F)C(F)(F)C(F)(F)C(F)(F)F [PFHxSA, Perfluorohexanesulfonamide]",Female PFHxSA plasma concentrations versus male plasma,at 30 and 100 mg/kg/day,at least two-fold higher
same,"Female plasma PFHxSA levels higher than males, on average",doses of 10 mg/kg/day and up,2.9 fold
same,concentration at 24 h,"female, plasma, 0.01 mg/kg/day, PFHxSA 0.01 mg/kg/day oral 5 days, female rats, mean ± SD, one sample estimated as half the LOQ, read-out: PFHxSA Female Plasma Conc.",0.117 ± 0.043 µM
same,concentration at 24 h,"female, plasma, 0.1 mg/kg/day, PFHxSA 0.1 mg/kg/day oral 5 days, female rats, mean ± SD, read-out: PFHxSA Female Plasma Conc.",1.1 ± 0.11 µM
same,concentration at 24 h,"female, plasma, 0.1 mg/kg/day, PFHxSA 0.1 mg/kg/day oral 5 days, female, individual rats, read-out: PFHxSA Female Plasma Conc.",1.03 µM and 410 ng/mL
same,concentration at 24 h,"female, plasma, 0.3 mg/kg/day, PFHxSA 0.3 mg/kg/day oral 5 days, female rats, mean ± SD, read-out: PFHxSA Female Plasma Conc.",4.34 ± 1.6 µM
same,concentration at 24 h,"female, plasma, 1 mg/kg/day, PFHxSA 1 mg/kg/day oral 5 days, female rats, mean ± SD, read-out: PFHxSA Female Plasma Conc.",21.3 ± 9.1 µM
same,concentration at 24 h,"female, plasma, 3 mg/kg/day, PFHxSA 3 mg/kg/day oral 5 days, female rats, mean ± SD, read-out: PFHxSA Female Plasma Conc.",37.1 ± 13 µM
same,concentration at 24 h,"female, plasma, 10 mg/kg/day, PFHxSA 10 mg/kg/day oral 5 days, female rats, mean ± SD, read-out: PFHxSA Female Plasma Conc.",64.9 ± 17 µM
same,concentration at 24 h,"female, plasma, 10 mg/kg/day, PFHxSA 10 mg/kg/day oral 5 days, female, individual rats, read-out: PFHxSA Female Plasma Conc.",19600 ng/mL and 49 µM
same,concentration at 24 h,"female, plasma, 30 mg/kg/day, PFHxSA 30 mg/kg/day oral 5 days, female rats, mean ± SD, read-out: PFHxSA Female Plasma Conc.",179 ± 66 µM
same,concentration at 24 h,"female, plasma, 100 mg/kg/day, PFHxSA 100 mg/kg/day oral 5 days, female, individual rats, read-out: PFHxSA Female Plasma Conc.",111000 ng/mL and 278 µM
same,concentration at 24 h,"male, plasma, 0.01 mg/kg/day, PFHxSA 0.01 mg/kg/day oral 5 days, male rats, single rat above the LOQ, read-out: PFHxSA Male Plasma Conc.",0.102 µM
same,concentration at 24 h,"male, plasma, 0.01 mg/kg/day, PFHxSA 0.01 mg/kg/day oral 5 days, male, individual rats, read-out: PFHxSA Male Plasma Conc.",40.6 ng/mL and 102 nM
same,concentration at 24 h,"male, plasma, 0.1 mg/kg/day, PFHxSA 0.1 mg/kg/day oral 5 days, male rats, mean ± SD, read-out: PFHxSA Male Plasma Conc.",0.796 ± 0.28 µM
same,concentration at 24 h,"male, plasma, 0.3 mg/kg/day, PFHxSA 0.3 mg/kg/day oral 5 days, male rats, mean ± SD, read-out: PFHxSA Male Plasma Conc.",4.26 ± 0.48 µM
same,concentration at 24 h,"male, plasma, 0.3 mg/kg/day, PFHxSA 0.3 mg/kg/day oral 5 days, male, individual rats, read-out: PFHxSA Male Plasma Conc.",1640 ng/mL and 3.49 µM
same,concentration at 24 h,"male, plasma, 1 mg/kg/day, PFHxSA 1 mg/kg/day oral 5 days, male rats, mean ± SD, read-out: PFHxSA Male Plasma Conc.",11.4 ± 2.2 µM
same,concentration at 24 h,"male, plasma, 1 mg/kg/day, PFHxSA 1 mg/kg/day oral 5 days, male, individual rats, read-out: PFHxSA Male Plasma Conc.",4950 ng/mL and 12.4 µM
same,concentration at 24 h,"male, plasma, 3 mg/kg/day, PFHxSA 3 mg/kg/day oral 5 days, male rats, mean ± SD, read-out: PFHxSA Male Plasma Conc.",27.1 ± 8 µM
same,concentration at 24 h,"male, plasma, 3 mg/kg/day, PFHxSA 3 mg/kg/day oral 5 days, male, individual rats, read-out: PFHxSA Male Plasma Conc.",9190 ng/mL and 23 µM
same,concentration at 24 h,"male, plasma, 10 mg/kg/day, PFHxSA 10 mg/kg/day oral 5 days, male rats, mean ± SD, read-out: PFHxSA Male Plasma Conc.",56.8 ± 14 µM
same,concentration at 24 h,"male, plasma, 10 mg/kg/day, PFHxSA 10 mg/kg/day oral 5 days, male, individual rats, read-out: PFHxSA Male Plasma Conc.",17700 ng/mL and 44.3 µM
same,concentration at 24 h,"male, plasma, 30 mg/kg/day, PFHxSA 30 mg/kg/day oral 5 days, male rats, mean ± SD, read-out: PFHxSA Male Plasma Conc.",81.2 µM
same,concentration at 24 h,"male, plasma, 30 mg/kg/day, PFHxSA 30 mg/kg/day oral 5 days, male, individual rats, read-out: PFHxSA Male Plasma Conc.",27700 ng/mL and 69.4 µM
same,concentration at 24 h,"male, plasma, 100 mg/kg/day, PFHxSA 100 mg/kg/day oral 5 days, male rats, average, read-out: PFHxSA Male Plasma Conc.",62.1 µM
same,concentration at 24 h,"male, plasma, 100 mg/kg/day, PFHxSA 100 mg/kg/day oral 5 days, male, individual rats, read-out: PFHxSA Male Plasma Conc.",29500 ng/mL and 74 µM

# Reference: paper PMC12737022, “Evaluations of Sex Differences in Dosimetry in Rats Following Perfluorohexanesulfonamide (PFHxSA) Oral Exposure” (Toxics, 2025)
